From patent US10858308B2, “Compounds and compositions” (priority 2017, dated 2020)
Marks after values point to notes of the source that are not given here.

Assays:
[1] = test system: Herpes Simplex virus-1 (HSV 1); experiment: HSV 1 spread and plaque assay in Vero cells
[2] = test system: Candida albicans ATCC 10231; experiment: MIC by broth dilution assay, Candida albicans; format: cell-based; details: 4 experiments, inoculum 3-6.5 × 10^3 cfu/ml, range bacteriostatic-bactericide concentration; for Sample's MIC: 37° C. 18-22 hours; for MIC: ATCC10231, 37° C. 18-22 hours, read-out: Sample's MIC
Protocol: (§1) Minimal inhibitory concentration (MIC) of each compound was tested by broth dilution assay.
(§2) • McFarland standard 0.5 • Falcon round-bottom 5 ml tubes • Disposable loops (1 μl and 10 μl) • Graduated pipettes (20 μl-1000 μl) • Disposable Petri dishes Media • Sterile normal saline • TSB (Tryptic Soy Broth) • TSA (Tryptic Soy Agar) Bacterial and Fungal strains • Salmonella enterica serovar Typhimurium ATCC 14028 • Staphylococcus aureus ATCC 6538 • Candida albicans ATCC 10231
(§3) Compounds 2, 3 and 4 were diluted in dimethyl sulfoxide (DMSO) at 10 mg/ml and were future 2-fold diluted for testing in TSB.
(§4) From a pure o/n culture, material from at least 3-4 colonies was chosen and suspended totally in 4 ml saline in tubes. The suspension was mixed.
(§5) The turbidity of inoculum was adjusted to match that of standard by comparing visually with the McFarland 0.5 standard using white paper with black lines as background.
(§6) The McFarland 0.5 suspension were diluted as follows for the species tested at this course:
(§7) The suspensions were used for inoculation within 15 minutes.
(§8) The Falcon round-bottom 5 ml tubes were inoculated with 500 μl of the inoculum suspension with 500 μl two-fold dilutions of antimicrobial agent using a graduated pipette
(§9) Tubes were sealed and incubated at 37° C. for 18-22 hours. This was done to avoid losing growth media and to avoid cross contamination.
(§10) McFarland 0.5 is approximately 10^8 CFU/ml. Standardization of inoculum is essential because the interpretation of the results is based on a certain inoculum.
(§11) Each tube contained approximately 5×10^5-1×10^6 CFU/ml after inoculation of bacteria and […] 5×10^3-1×10^4 CFU/ml of yeast.
(§12) Purity of the inoculum suspension was checked.
(§13) Growth in the 3 positive control tubes was checked.
(§14) Minimal inhibitory concentration (MIC) was recorded as the lowest concentration of antimicrobial agent with no visible growth.

[3] = test system: Salmonella enterica serovar Typhimurium ATCC 14028; experiment: MIC by broth dilution assay, Salmonella Typhimurium; format: cell-based; details: for MIC: Salmonella enterica, read-out: Sample's MIC
Protocol: as §1, §2, §3, §4, §5, §6
Gr-neg.: 10 μl McFarl. 0.5 into 10 ml broth
as §7, §8, §9, §10, §11, §12, §13, §14

[4] = test system: Staphylococcus aureus ATCC 6538; experiment: MIC by broth dilution assay, Staphylococcus aureus; format: cell-based; details: ATCC6538, 37° C. 18-22 hours, 4 experiments, inoculum 1.2-2.1 × 10^6 cfu/ml, range bacteriostatic-bactericide concentration, read-out: Sample's MIC
Protocol: as §1, §2, §3, §4, §5, §6
Gr-pos.: 50 μl McFarl. 0.5 into 10 ml broth
as §7
The Falcon round-bottom 5 ml tubes were inoculated with 500 μl of the inoculum suspension with 500 μl two-fold dilutions of antimicrobial agent using a graduated pipette […]
as §14

pH of aqueous solution = format: physicochemical
Vaccinia virus (WR-VV) = format: cell-based; parameters: dose or concentration left out as unconfirmed; details: BSC 40 cells pre-treated
Surfactant activity = format: physicochemical
[5] = in the presence of 100 μg/ml of the compounds
[6] = in the presence of the compounds

Q: With `Cc1ccc(C(C)C)c(OC(=O)C[N+](C)(C)CCCCCCCCCC[N+](C)(C)CC(=O)Oc2cc(C(C)C)ccc2C)c1` [Compound 2, N^1-{2-[2-methyl-5-(propan-2-yl)phenoxy]-2-oxoethyl}-N^1,N^1,N^10,N^10-tetramethyl-N^10-{2-[5-methyl-2-(propan-2-yl)phenoxy]-2oxoethyl}decane-1,10-bis(aminium) dichloride] as the molecule, how does the “HSV-1 infectivity reduced by” value [1, 5] read?
A: 80%

Q: And the “HSV-1 infectivity reduced by” value [1, 6]?
A: 50%

Q: And the “Sample's MIC” value [2]?
A: 62.5-125* μg/ml

Q: What about the MIC [2] of the same molecule?
A: 62.5 to 125 µg/mL

Q: What about the MIC [3] of the same molecule?
A: 62.5 to 125 µg/mL

Q: And the melting point?
A: 92 to 96 °C

Q: And the MIC [4]?
A: 31.2 to 62.5 µg/mL

Q: Which “HSV-1 infectivity reduced by” value [1, 5] does the source give for `Cc1ccc(C(C)C)c(OC(=O)C[N+](C)(C)CCCCCCCCCC[N+](C)(C)CCCCCCCCCC[N+](C)(C)CC(=O)Oc2cc(C(C)C)ccc2C)c1` [Compound 3, N^1-{{2-[2-methyl-5-(propan-2-yl)phenoxy]-(2-oxoethyldimethyl)azaniumyl bromide}decyl}-N^10-{2-[5-methyl-2-(propan-2-yl)phenoxy]-2oxoethyl}-N^1,N^1,N^1,N^10,N^10-tetramethyldecane-1,10-bis(aminium) dichloride] here?
A: 80%

Q: What about the “HSV-1 infectivity reduced by” value [1, 6] of the same molecule?
A: 50%

Q: What about the “inhibitory effect on HSV 1 spreading and plaque number” value ([1]; pre-treated, liquid and agar plaque assay, two days of infection, dose dependent) of the same molecule?
A: strong inhibitory effect

Q: What about the “Aqueous solution pH” value (pH of aqueous solution) of the same molecule?
A: 7.2

Q: What about the “inhibition of Vaccinia virus plaque formation” value (Vaccinia virus (WR-VV)) of the same molecule?
A: none of compounds 2 or 3 inhibited Vaccinia virus (VV) plaque formation

Q: And the Surfactant activity (Surfactant activity)?
A: Displays Surfactant Activity

Q: What about the MIC [2] of the same molecule?
A: 31.2 to 62.5 µg/mL

Q: What about the MIC [3] of the same molecule?
A: 31.2 to 62.5 µg/mL

Q: And the MIC [4]?
A: 15.6 to 31.2 µg/mL

Q: What does the source list for “N^1-{2-[2-methyl-5-(propan-2-yl)phenoxy]-2-oxoethyl}-N^1,N^1,N^10,N^10-tetramethyl-N^10-{2-[5-methyl-2-(propan-2-yl)phenoxy]-2oxoethyl}decane-1,10-bis(aminium) dichloride [Compound 4]”?
A: Sample's MIC [2]: 31.25 to 62.5 µg/mL; Sample's MIC ([3]; Salmonella enterica serovar Typhimurium ATCC 14028, broth dilution, 37° C. 18-22 hours, 4 experiments, inoculum 5 × 10^3 cfu/ml, range bacteriostatic-bactericide concentration): 31.25 to 62.5 µg/mL
